Source: ChEMBL document CHEMBL4706609, “Development of triazolothiadiazine derivatives as highly potent tubulin polymerization inhibitors: Structure-activity relationship, in vitro and in vivo study” (Eur J Med Chem, 2020)

Assays:
HT-29 = assay: Antiproliferative activity against human HT-29 cells assessed as reduction in cell growth after 48 hrs by MTT assay; assay type: functional, cell-based; conditions: HT-29, 48 h
HeLa = assay: Antiproliferative activity against human HeLa cells assessed as reduction in cell growth after 48 hrs by MTT assay; assay type: functional, cell-based
MCF7 = assay: Antiproliferative activity against human MCF7 cells assessed as reduction in cell growth after 48 hrs by MTT assay; assay type: functional, cell-based; conditions: MCF7, 48 h
A549 [1] = assay: Antiproliferative activity against human A549 cells assessed as reduction in cell growth after 48 hrs by MTT assay; assay type: functional, cell-based; conditions: A549, 48 h
A549 [2] = assay: Antiproliferative activity against cisplatin resistant human A549 cells assessed as reduction in cell growth after 48 hrs by MTT assay; assay type: functional, cell-based; conditions: A549, 48 h
HEK293 = assay: Cytotoxicity against HEK293 cells assessed as reduction in cell growth after 48 hrs by MTT assay; assay type: cell-based; conditions: Homo sapiens, HEK293, 48 h
A2780 = assay: Antiproliferative activity against paclitaxel-resistant human A2780 cells assessed as reduction in cell growth after 48 hrs by MTT assay; assay type: functional, cell-based; conditions: A2780, 48 h
[3] = Inhibition of porcine brain tubulin polymerization measured for 20 mins by spectrometric assay; assay type: tissue-based, Sus scrofa

Row | Structure (SMILES) | IC50 (HT-29) [µM] | other results
1 | COc1ccc(-c2nnc3n2N=C(c2cc(OC)c(OC)c(OC)c2)CS3)cc1OC | > 20 | –
2 | COc1cc(-c2nnc3n2N=C(NCCc2ccc(F)cc2)CS3)cc(OC)c1OC | > 20 | –
3 | COc1ccc(-c2nnc3n2N=C(c2cc(OC)c(OC)c(OC)c2)CS3)cc1 | > 20 | –
4 | COc1cc(-c2nnc3n2N=C(c2ccc(F)c(F)c2)CS3)cc(OC)c1OC | > 20 | –
5 | COc1ccc(NC2=Nn3c(nnc3-c3cc(OC)c(OC)c(OC)c3)SC2)cc1 | > 20 | –
6 | COc1cc(NC2=Nn3c(nnc3-c3cc(OC)c(OC)c(OC)c3)SC2)cc(OC)c1OC | > 20 | –
7 | COc1cc(-c2nnc3n2N=C(NCc2ccc(Cl)cc2)CS3)cc(OC)c1OC | > 20 | –
8 | COc1cc(-c2nnc3n2N=C(NCCc2ccccc2)CS3)cc(OC)c1OC | > 20 | –
9 | COc1cc(-c2nnc3n2N=C(Nc2ccc(C)cc2)CS3)cc(OC)c1OC | > 20 | –
10 | COc1cc(-c2nnc3n2N=C(Nc2ccc(S(C)(=O)=O)cc2)CS3)cc(OC)c1OC | > 20 | –
11 | COc1cc(-c2nnc3n2N=C(NCc2ccc(Br)cc2)CS3)cc(OC)c1OC | > 20 | –
12 | COc1cc(C2=Nn3c(nnc3-c3ccc(Cl)cc3)SC2)cc(OC)c1OC | > 20 | –
13 | COc1cc(-c2nnc3n2N=C(C2CC2)CS3)cc(OC)c1OC | > 20 | –
14 | COc1ccc(/C=C\c2cc(OC)c(OC)c(OC)c2)cc1O [COMBRETASTATIN A4] | – | IC50 (A549 [2]): 130 µM; IC50 (HEK293): 45.7 µM; IC50 (A2780): 72.8 µM; IC50 (A549 [1]): 0.021 µM
15 | COc1cc(-c2nnc3n2N=C(c2ccc([N+](=O)[O-])cc2)CS3)cc(OC)c1OC | > 20 | –
16 | COc1ccc(CCNC2=Nn3c(nnc3-c3cc(OC)c(OC)c(OC)c3)SC2)cc1 | > 20 | –
17 | COc1cc(C2=Nn3c(nnc3-c3ccc(C)cc3)SC2)cc(OC)c1OC | > 20 | –
18 | COc1cc(-c2nnc3n2N=C(Nc2c(Cl)cccc2Cl)CS3)cc(OC)c1OC | > 20 | –
19 | COc1cc(-c2nnc3n2N=C(Nc2ccccc2C)CS3)cc(OC)c1OC | > 20 | –
20 | COc1cc(-c2nnc3n2N=C(Nc2cccc(F)c2)CS3)cc(OC)c1OC | > 20 | –
21 | COc1ccc(C2=Nn3c(nnc3-c3cc(OC)c(OC)c(OC)c3)SC2)cc1O | 9.81 | –
22 | COc1cc(-c2nnc3n2N=C(Nc2ccc(N4CCOCC4)cc2)CS3)cc(OC)c1OC | > 20 | –
23 | COc1cc(-c2nnc3n2N=C(NCCc2ccc(C)cc2)CS3)cc(OC)c1OC | > 20 | –

Further lines, with some results ahead:

Row | IC50 (HT-29) [µM] | Structure (SMILES) | other results
24 | > 20 | COc1cc(-c2nnc3n2N=C(NCCc2ccc(Cl)cc2)CS3)cc(OC)c1OC | –
25 | 0.131 | COc1cc(-c2nnc(SCC(=O)c3ccc(C)cc3F)n2N)cc(OC)c1OC | IC50 (HeLa): 0.04 µM; IC50 (MCF7): > 100 µM; IC50 (A549 [1]): > 100 µM
26 | 12.2 | COc1cccc(NC2=Nn3c(nnc3-c3cc(OC)c(OC)c(OC)c3)SC2)c1 | –
27 | > 20 | COc1cc(-c2nnc3n2N=C(NCc2ccc(C)cc2)CS3)cc(OC)c1OC | –
28 | 15.4 | CCC1=Nn2c(nnc2-c2cc(OC)c(OC)c(OC)c2)SC1 | –
29 | 4.25 | COc1cc(-c2nnc3n2N=C(c2cccs2)CS3)cc(OC)c1OC | –
30 | > 20 | COc1cc(-c2nnc3n2N=C(NCc2ccccc2)CS3)cc(OC)c1OC | –
31 | 14.1 | COc1cc(-c2nnc3n2N=C(c2ccc(O)cc2)CS3)cc(OC)c1OC | –
32 | 5.18 | COc1cc(-c2nnc3n2N=C(c2ccc(Br)cc2)CS3)cc(OC)c1OC | –
33 | 15.4 | COc1cc(-c2nnc3n2N=C(c2cccc(Br)c2)CS3)cc(OC)c1OC | –
34 | 19.9 | COc1cc(C2=Nn3c(nnc3-c3cc(OC)c(OC)c(OC)c3)SC2)cc(OC)c1OC | –
35 | 8.32 | COc1cc(-c2nnc3n2N=C(c2ccc(F)cc2)CS3)cc(OC)c1OC | –
36 | 10.4 | COc1cc(-c2nnc3n2N=C(c2cc4ccccc4oc2=O)CS3)cc(OC)c1OC | –
37 | 0.18 | COc1ccc(C2=Nn3c(nnc3-c3cc(OC)c(OC)c(OC)c3)SC2)cc1 | IC50 (A549 [2]): 67.2 µM; IC50 (HeLa): 0.018 µM; IC50 (HEK293): > 100 µM; IC50 (MCF7): 0.205 µM; IC50 (A2780): 62.2 µM; IC50 (A549 [1]): 0.077 µM; IC50 [3]: 2.39 µM
38 | 2.84 | COc1cc(-c2nnc3n2N=C(Nc2ccc(Cl)cc2)CS3)cc(OC)c1OC | –
39 | 13.7 | COc1cc(-c2nnc3n2N=C(c2ccc(-c4ccccc4)cc2)CS3)cc(OC)c1OC | –
40 | 16.1 | COc1cc(-c2nnc3n2N=C(c2ccccc2C)CS3)cc(OC)c1OC | –
41 | 15.8 | COc1cc(-c2nnc3n2N=C(C)CS3)cc(OC)c1OC | –
42 | 10.8 | COc1cc(-c2nnc3n2N=C(c2ccco2)CS3)cc(OC)c1OC | –
43 | 19.7 | COc1cc(C2=Nn3c(nnc3-c3ccc(F)cc3)SC2)cc(OC)c1OC | –
44 | 2.9 | COc1cc(-c2nnc3n2N=C(Nc2ccccc2F)CS3)cc(OC)c1OC | –
45 | 9.86 | COc1ccc(-c2nnc3n2N=C(c2cc(OC)c(OC)c(OC)c2)CS3)cc1O | –
46 | 3.25 | COc1cc(-c2nnc3n2N=C(Nc2ccccc2)CS3)cc(OC)c1OC | –
47 | 18.6 | COc1cc(-c2nnc3n2N=C(Nc2ccc(Br)cc2)CS3)cc(OC)c1OC | –
48 | 6.02 | COc1cc(-c2nnc3n2N=C(c2cccc4ccccc24)CS3)cc(OC)c1OC | –
49 | 5.65 | COc1cc(-c2nnc3n2N=C(c2ccccc2)CS3)cc(OC)c1OC | –
50 | 0.29 | COc1cc(-c2nnc3n2N=C(c2ccc(C(F)(F)F)cc2)CS3)cc(OC)c1OC | IC50 (A549 [2]): > 200 µM; IC50 (HeLa): 0.019 µM; IC50 (HEK293): > 100 µM; IC50 (MCF7): 0.241 µM; IC50 (A2780): 86.5 µM; IC50 (A549 [1]): 0.286 µM; IC50 [3]: 4.82 µM
51 | 5.94 | COc1cccc(C2=Nn3c(nnc3-c3cc(OC)c(OC)c(OC)c3)SC2)c1 | –
52 | 13.6 | COc1cc(-c2nnc3n2N=C(c2cccc(C)c2)CS3)cc(OC)c1OC | –
53 | 8.11 | COc1cc(-c2nnc3n2N=C(Nc2ccc(F)cc2)CS3)cc(OC)c1OC | –
